Results from ChEMBL document CHEMBL3745682, “Pivotal role of glycogen synthase kinase-3: A therapeutic target for Alzheimer's disease” (Eur J Med Chem, 2016).

Tests used:
[1] = biological target: T1, Glycogen synthase kinase-3 (Homo sapiens, UniProt P49840+P49841); assay type: protein assay
Description: Inhibition of glycogen synthase kinase-3 (unknown origin)

[2] = biological target: T2, Glycogen synthase kinase-3 beta (Homo sapiens, UniProt P49841)
Description: Competitive inhibition of glycogen synthase kinase-3 beta (unknown origin) using GS-1 as substrate after 30 mins by scintillation counting analysis in presence of [gamma-32P]-ATP

[3] = biological target: T2, Glycogen synthase kinase-3 beta; test: Inhibition of glycogen synthase kinase-3 beta (unknown origin) using GS-1 as substrate after 20 mins by scintillation counting analysis in presence of [gamma-32P]-ATP
[4] = biological target: T1, Glycogen synthase kinase-3; test: Competitive inhibition of glycogen synthase kinase-3 (unknown origin) in presence of ATP; assay type: protein assay

T2 sequence (P49841 whole entry): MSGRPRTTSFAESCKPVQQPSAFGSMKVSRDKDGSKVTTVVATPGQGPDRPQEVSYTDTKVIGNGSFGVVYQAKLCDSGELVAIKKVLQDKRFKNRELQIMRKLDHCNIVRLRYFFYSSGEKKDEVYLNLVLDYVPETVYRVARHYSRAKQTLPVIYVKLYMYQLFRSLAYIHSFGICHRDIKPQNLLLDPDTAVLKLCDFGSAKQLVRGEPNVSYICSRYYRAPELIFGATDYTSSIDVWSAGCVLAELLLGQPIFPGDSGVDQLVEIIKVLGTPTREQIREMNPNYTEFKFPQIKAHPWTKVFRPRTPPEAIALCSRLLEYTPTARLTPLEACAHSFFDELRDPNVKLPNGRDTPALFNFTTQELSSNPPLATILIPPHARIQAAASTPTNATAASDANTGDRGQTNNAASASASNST

CC(=O)C1=C(c2cn(C)c3ccccc23)C(=O)NC1=O
IC50 [1]: 4.47 µM

O=C1Nc2ccccc2/C1=C1/Nc2cc(Br)ccc2C1=O
IC50 [2]: 0.004 µM

O=C(CBr)c1ccc(C2C(=O)c3ccccc3C2=O)cc1
IC50 [3]: 100 µM

Br.CCOC(=O)C/N=C1\NC(c2ccccc2)N(c2ccccc2)S1 (centres undefined)
IC50 [1]: 7.05 µM

Clc1cccc(C2=NC(c3ccccc3)=NN(c3ccccc3)c3ccccc32)c1
IC50 [1]: 3.38 µM

O=S=C(CCl)c1ccc(Cl)cc1
IC50 [3]: > 100 µM

Br.Br.c1ccc(C/N=C2\NC(c3ccccc3)N(c3ccccc3)S2)cc1 (centres undefined)
IC50 [1]: 1.28 µM

COc1ccc(CNC(=O)Nc2nc(C)c(C(C)=O)s2)cc1
IC50 [4]: 0.4 µM

O=C1Nc2ccccc2/C1=C1/Nc2ccccc2C1=O [INDIRUBIN]
IC50 [2]: 0.004 µM
